According to patent US20090297624A1, “ARSENIC THERAPY FOR AUTOIMMUNE AND/OR INFLAMMATORY DISEASES IN MICE AND HUMANS” (CENTRE NATIONALE DE LA RECHERCHE SCIENTIFIQUE (CNRS), priority 2002, published 2009):
Values joined by “and” are separate entries in the source; they are usually repeats but may differ in a detail not shown here. Equal entries are not always repeated.

Tests used:
MRL/lpr mouse [1] = assay: Curative arsenic (As2O3) treatment of MRL/lpr autoimmune mice; type: in vivo
Text: The inventors have studied mice referred to as MRL mice homozygous for the lpr mutation (MRL/lpr). Lymphoproliferation (lpr) results in an accumulation of activated T lymphocytes, of phenotype CD4^+CD8^− or CD4^−CD8^+ which have escaped the process of negative regulation via the apoptotic pathway. Thus, in MRL/lpr mice, hypertrophy of lymph nodes occurs, the mass of which is 100 times greater than that of the lymph nodes of MRL+/+mice, which are congenic for the lpr gene, and a spleen whose size is multiplied by 7 and a thymus whose weight, at the 22nd week, is double that of the MRL+/+ mice are observed. These activated T lymphocytes which accumulate will gradually repress the expression of their CD4 or CD8 receptors and become double-negative T lymphocytes having the phenotype: TCRαβCD4^−CD8^−B220^+, which will be responsible for the lymphoproliferation.
The MRL/lpr mouse is in particular a spontaneous model of autoimmune diseases such as disseminated lupus erythematosus with the presence of erythematous lesions of the skin and of rheumatoid arthritis. […] These mice produce, as they age, a large quantity of autoantibodies which are responsible for a lethal glomerulonephritis due to immunocomplex deposits in the glomeruli of the kidney. Thus, the lifespan of the MRL/lpr mouse is considerably shortened compared with that of the MRL+/+ mouse: ˜4-5 months in the MRL/lpr mouse compared with ˜2 years in the MRL+/+ mouse.
(§1) Initially, the inventors determined the optimum dose of arsenic (As2O3) to be injected into the MRL/lpr mice. Two concentrations were chosen: 1 and 5 μg of As2O3/g of mouse. At date T0, these injections were given daily. […] Knowing that the MRL/lpr autoimmune mice die, on average, after 4 to 5 months, compared with the normal MRL+/+ mice which die after ˜2 years, the inventors decided to conserve, for the subsequent treatments, only the dose of 5 μg/g of mice.
From the end of the first week of treatment, the inventors formed 5 groups of animals: • b 1st group, aimed at the curative treatment of an already present pathology, • 2nd group, aimed at preventing the appearance of pathologies, • 3rd group, aimed at determining the lifespan of the treated animals, • 4th group, aimed at determining the dose effect, • 5th group, aimed at evaluating the effect of stopping the treatment.
(§2) Each of the five groups has its controls consisting in injecting the dilution buffer for the arsenic. In addition, the animals present in the control and treated groups are derived from the same litter, which makes it possible to obtain reliable comparisons. At T0+5 months, more than 60 mice (MRL/lpr and MRL+/+) are undergoing treatment.
This study is aimed at the curative treatment of an already present pathology.
(§3) In parallel with these studies on the skin, other organs that are targets for autoimmune pathologies, such as the kidney, the lung, the liver, the eye, etc., were removed and analyzed by anatomopathology. In addition, these various organs, along with the spleen, the lymph nodes and the thymus, were weighed.
After 1 month and 20 days of treatment, a group of 3 control MRL/lpr mice and a group of 3 treated MRL/lpr mice were sacrificed in order to evaluate the effectiveness of the treatment on the lympho-proliferation. The organs analyzed were the thymus, the spleen and the lymph nodes. […] The phenotype of the lymphoid populations present in this spleen and this node was determined by flow cytometry. […] In addition, this cell population of abnormal phenotype is replaced with T lymphocytes of normal phenotype CD4^+CD8^− and CD4^−CD8^+ (FIG. 5). However, the level of reduction of the number of these double-negative T cells depends on the duration of the treatment. […]

MRL+/+→MRL+/+ chimeras = assay: As2O3 treatment of control MRL+/+→MRL+/+ chimeras; type: in vivo, mouse; settings: serum ELISA
Description: (§4) Hematopoietic chimeras. Spleen and bone marrow cells from MRL/lpr were injected i.v. into MRL+/+ lethally irradiated (1000 cGy) in a ^137Cesium irradiator (MRL/Lpr→MRL+/+ chimeras). The control group consisted of irradiated MRL+/+ grafted with MRL+/+ cells (MRL+/+→MRL+/+ chimeras). All mice used in this graft protocol were sex matched.
(§5) MRL/Lpr→MRL+/+ and MRL+/+→MRL+/+ chimeras were injected i.p. daily with 2.5, 5, 7.5, 10 or 15 μg/g body weight of As2O3; controls received a daily i.p. injection of PBS (volume weight-determined). Treatments were initiated one week post-grafting.
(§6) Serum levels of IFN-α, IFN-γ, soluble FasL, IL-18, TNF-α were assayed using the Mouse Interferon-alpha (PBL Biomedical laboratories, New Jersey, USA), the Mouse Interferon-gamma ELISA Ready-SET-Go (eBioscience, San Diego, Calif.), Mouse Fas Ligand Immunossay (Quantikine M kit; R&D systems, Minneapolis, Minn.), Mouse IL-18 ELISA (R&D Systems), Mouse TNF-α Immunoassay (R&D systems), respectively, following the manufacturer's instructions.

MRL/lpr→MRL+/+ chimeras = assay: As2O3 treatment of MRL/lpr→MRL+/+ chimeras (GVH reaction); type: in vivo, mouse
Description: In addition, lethally irradiated MRL+/+ mice had their bone marrow reconstituted with bone marrow from MRL/lpr mice (MRL/lpr→MRL+/+ chimeras) or with bone marrow from MRL+/+ mice (MRL+/+→MRL+/+ chimeras) as a control. After reconstitution, the chimeras are treated with arsenic or are not treated. While 100% of the untreated MRL/lpr→MRL+/+ chimeras died of a graft-versus-host (GvH) reaction two weeks after the transplant, the chimeras treated with arsenic were alive. The arsenic is therefore effective against GvH and makes it possible to spectacularly increase the survival of the animals.
as §4, §5
Blood samples were collected at different times after grafting and glutamic-oxaloacetic transaminase (GOT) and glutamic-pyruvic transaminase (GPT) levels were measured (IU/l).
as §6
Serum levels of nitrite were measured using the Nitric Oxide quantification kit (Active Motif, Rixensart, Belgium), according to the manufacturer's instructions (data not shown).

MRL+/+ mouse = assay: Arsenic treatment of control MRL+/+ mice; type: in vivo
Description: as §1, §2, §3
(§7) The aim of this group of animals, which was begun at T0, is to evaluate the preventive effect of an arsenic treatment on the development of the lymphoproliferation and of the autoimmune pathologies. To do this, 4 groups of animals 1.5 months old were formed. Two of these groups consist of MRL/lpr mice and the other two groups consist of MRL+/+ mice. One MRL/lpr group and one MRL+/+ group were treated with 5 μg of arsenic per gram of mouse, and the other two control groups were treated with the dilution buffer for the arsenic. At T0+1 month, animals from each group were sacrificed. The organs analyzed were the thymus, the spleen, the lymph nodes, the skin, the liver, the kidney and the heart. […] The arsenic therefore has a preventive effect on the development of the lymphoproliferation. The phenotype of the lymphoid populations present in this spleen and this node was determined by flow cytometry. As for the results for group 1, the arsenic makes it possible to eliminate the population of double-negative T cells which accumulate as the MRL/lpr mouse ages. In addition, the organs of these treated mice have a normal weight; there is therefore neither the lympho-proliferation nor the hepatomegaly that are observed in the control mice. The liver, the spleen, a lymph node, an eye, etc., were removed in order to be analyzed by anatomopathology.

MRL/lpr mouse [2] = assay: Preventive arsenic treatment of MRL/lpr mice; type: in vivo
Description: This study is aimed at preventing the appearance of the pathologies.
as §7
It is desirable to determine very precisely the preventive and curative effect of various doses of arsenic on the evolution of the pathologies developed by the MRL/lpr mice. Five groups of animals (MRL/lpr and MRL+/+) were treated with the following concentrations: 2.5, 5, 7.5, 10 and 15 μg/g of mouse.

[3] = tested on: NOD (non obese diabetic) mice; assay: Arsenic treatment of diabetic NOD mice, glucose in urine; type: in vivo, mouse; settings: 5-month-old female NOD mice treated for 2 months
Description: 5-Month-old female NOD (non obese diabetic) mice, which were developing the first symptoms of diabetes, were treated for 2 months with arsenic. The evolution of the pathology was evaluated by measuring the amount of glucose in the urine.

[4] = MRL/lpr mice treated with arsenic
[5] = MRL/lpr, treated with arsenic for two months, treatment then stopped for two months
[6] = end of the first month of treatment, 5 μg/g
[7] = MRL+/+ mice treated with arsenic
[8] = preventive, 5 μg/g, at T0+1 month

O=[As]O[As]=O (centres unmarked) [As2O3]
curative effect (skin lesions, size of the nodes) (MRL/lpr mouse [1]; 2.5 μg/g of mouse): not sufficiently effective | lupus-specific skin lesions (MRL/lpr mouse [1]; 5 μg of As2O3/g of mouse daily, after one week of treatment): spectacular signs of improvement | skin lesions (MRL/lpr mouse [1]; 5 μg/g): complete disappearance of skin lesions | skin lesions (MRL/lpr mouse [1]; 7.5 μg/g): complete disappearance of skin lesions | skin lesions (MRL/lpr mouse [1]; 10 μg/g): complete disappearance of skin lesions | toxicity, curative treatment (MRL/lpr mouse [1]; 15 μg/g of mouse): lethal in a few days | immunocomplexes in the kidney (MRL/lpr mouse [1]; FIG. 7): absence of immunocomplexes in the kidney | infiltration of the kidney by cells of the immune system (MRL/lpr mouse [1]; FIG. 7): do not shown any infiltration | Organ weight, 2 lungs (MRL/lpr mouse [1]; [4]): 0.33 grams and 0.40 grams | Organ weight, axillary nodes (MRL/lpr mouse [1]; [4]): 0.01 grams and 0.02 grams | Organ weight, heart (MRL/lpr mouse [1]; [4]): 0.20 grams and 0.25 grams | Organ weight, kidney (MRL/lpr mouse [1]; [4]): 0.52 grams and 0.53 grams | Organ weight, liver (MRL/lpr mouse [1]; [4]): 2.58 grams and 2.89 grams | Organ weight, mesenteric nodes (MRL/lpr mouse [1]; [4]): 0.05 grams | Organ weight, spleen (MRL/lpr mouse [1]; [4]): 0.13 grams and 0.17 grams | Organ weight, 2 lungs (MRL/lpr mouse [1]; [5]): 0.51 grams and 0.50 grams | Organ weight, heart (MRL/lpr mouse [1]; [5]): 0.29 grams and 0.26 grams | Organ weight, kidney (MRL/lpr mouse [1]; [5]): 0.55 grams | Organ weight, liver (MRL/lpr mouse [1]; [5]): 3.21 grams and 3.12 grams | Organ weight, mesenteric nodes (MRL/lpr mouse [1]; [5]): 1.97 grams and 1.03 grams | size of the spleen and of a mesenteric node (MRL/lpr mouse [1]; after 1 month and 20 days of treatment, FIG. 4): spectacular decrease | population of double-negative T lymphocytes TCRαβCD4-CD8-B220+ (MRL/lpr mouse [1]; after 1 month and 20 days of treatment, flow cytometry of spleen and node): virtually complete elimination | survival (MRL/lpr mouse [1]; after 4 months, FIG. 9 legend): all the treated animals are alive | survival and signs of pathology (MRL/lpr mouse [1]; after 35 weeks of treatment, FIG. 9): still alive with no signs of lymphoproliferation or of autoimmune pathologies | pulmonary architecture, infiltration by lymphoid cells (MRL/lpr mouse [1]; anatomopathology, FIG. 3): normal pulmonary architecture | amount of cytokines (alpha-IFN, gamma-IFN, IL-18, TNF-alpha, soluble FasL) (MRL/lpr mouse [1]; compared with normal MRL+/+ mice, FIG. 6): returns the amount of cytokines to a normal level | exophthalmia (MRL/lpr mouse [1]; [6]): spectacular decrease | lupus-related skin lesions (MRL/lpr mouse [1]; [6]): complete disappearance | lowest effective dose (MRL/lpr mouse [1]; mouse): 5 µg/g | glomerulonephritis (MRL/lpr mouse [1]; mouse, in vivo): significant reduction | weight of lymph nodes, spleen and liver compared to MRL+/+ mouse (MRL/lpr mouse [1]; summary of table 1): returns the following organs to a normal weight | double-negative T cells (MRL/lpr mouse [1]; treatment of three months): eliminate all the double-negative T cells | pathologies after stopping treatment (MRL/lpr mouse [1]; treatment stopped for three months): reappearance of the lymphoproliferation and of the hepatomegaly | treated mice alive (MRL/lpr mouse [1]; very sick MRL/lpr mice, at T0+14 weeks): 100% | IFN-α synthesis (MRL+/+→MRL+/+ chimeras; FIG. 11A): not affected | TNF-α synthesis (MRL+/+→MRL+/+ chimeras; FIG. 11B): not affected | soluble and membrane-associated FasL levels (MRL/lpr→MRL+/+ chimeras; ELISA of sera and Western blotting of lymphoid cell lysates, FIG. 10A): sharply decreased | serum IFN-α level (MRL/lpr→MRL+/+ chimeras; ELISA, FIG. 11A): maintained normal cytokine concentrations | serum TNF-α level (MRL/lpr→MRL+/+ chimeras; ELISA, FIG. 11B): maintained normal cytokine concentrations | Transaminase levels (GOT) (MRL/lpr→MRL+/+ chimeras; FIG. 10B): normalised | level of other inflammatory cytokines and NO (MRL/lpr→MRL+/+ chimeras; data not shown): reduced | survival (MRL/lpr→MRL+/+ chimeras; male and female chimeras with established GVH reaction, P<0.001, FIG. 12): significantly prolonged survival | survival of chimeras (MRL/lpr→MRL+/+ chimeras; two weeks after the transplant): alive | Organ weight, 2 lungs (MRL+/+ mouse; [7]): 0.32 grams and 0.30 grams | Organ weight, axillary nodes (MRL+/+ mouse; [7]): 0.01 grams | Organ weight, heart (MRL+/+ mouse; [7]): 0.22 grams | Organ weight, kidney (MRL+/+ mouse; [7]): 0.44 grams | Organ weight, liver (MRL+/+ mouse; [7]): 2.40 grams and 2.45 grams | Organ weight, mesenteric nodes (MRL+/+ mouse; [7]): 0.05 grams and 0.03 grams | Organ weight, spleen (MRL+/+ mouse; [7]): 0.10 grams and 0.15 grams | treatment-related pathologies (MRL+/+ mouse; MRL+/+ mice, 5 μg/g, at T0+5 months): no sign of treatment-related pathologies | toxicity, preventive treatment (MRL/lpr mouse [2]; 15 μg/g of mouse): very toxic and the animals died after two months | non-lymphoid organs such as the heart or the kidney (MRL/lpr mouse [2]; [8]): not modified by the treatment | organ weight (lymphoproliferation, hepatomegaly) (MRL/lpr mouse [2]; [8]): normal weight | lymphoproliferation (MRL/lpr mouse [2]; preventive, 1.5 months old mice, 5 μg/g, at T0+1 month): virtually complete absence of the lymphoproliferation | glucose level in the urine [3]: normal glucose level in the urine
